Reference: patent US6150385A, “1,3,4-thiadiazoles useful for the treatment of CMV infections” (Pharmacia & Upjohn Company, priority 1999, dated 2000)

Target: T1, HCMV polymerase (Human cytomegalovirus, UniProt P08546)
T1 construct: made in house; host or cells: SF-9 insect cells infected with recombinant baculovirus
Experiment: HCMV polymerase assay (scintillation proximity assay)
Format: biochemical
Conditions: percentage of inhibition at 25 μM concentration in CMV polymerase assay
Summary of the method: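 Baculovirus/SF-9-expressed HCMV polymerase in 5.4 mM HEPES pH 7.5, 11.7 mM KCl, 4.5 mM MgCl2, 0.36 mg/ml BSA, 90 nM 3H-dTTP, with or without 2 mM CHAPS. Started with 6 nM biotinylated poly(dA)-oligo(dT), 30 min at 25 or 37 °C, EDTA-stopped, read by streptavidin-SPA counting; % inhibition at 25 μM.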

T1 sequence (P08546 whole entry): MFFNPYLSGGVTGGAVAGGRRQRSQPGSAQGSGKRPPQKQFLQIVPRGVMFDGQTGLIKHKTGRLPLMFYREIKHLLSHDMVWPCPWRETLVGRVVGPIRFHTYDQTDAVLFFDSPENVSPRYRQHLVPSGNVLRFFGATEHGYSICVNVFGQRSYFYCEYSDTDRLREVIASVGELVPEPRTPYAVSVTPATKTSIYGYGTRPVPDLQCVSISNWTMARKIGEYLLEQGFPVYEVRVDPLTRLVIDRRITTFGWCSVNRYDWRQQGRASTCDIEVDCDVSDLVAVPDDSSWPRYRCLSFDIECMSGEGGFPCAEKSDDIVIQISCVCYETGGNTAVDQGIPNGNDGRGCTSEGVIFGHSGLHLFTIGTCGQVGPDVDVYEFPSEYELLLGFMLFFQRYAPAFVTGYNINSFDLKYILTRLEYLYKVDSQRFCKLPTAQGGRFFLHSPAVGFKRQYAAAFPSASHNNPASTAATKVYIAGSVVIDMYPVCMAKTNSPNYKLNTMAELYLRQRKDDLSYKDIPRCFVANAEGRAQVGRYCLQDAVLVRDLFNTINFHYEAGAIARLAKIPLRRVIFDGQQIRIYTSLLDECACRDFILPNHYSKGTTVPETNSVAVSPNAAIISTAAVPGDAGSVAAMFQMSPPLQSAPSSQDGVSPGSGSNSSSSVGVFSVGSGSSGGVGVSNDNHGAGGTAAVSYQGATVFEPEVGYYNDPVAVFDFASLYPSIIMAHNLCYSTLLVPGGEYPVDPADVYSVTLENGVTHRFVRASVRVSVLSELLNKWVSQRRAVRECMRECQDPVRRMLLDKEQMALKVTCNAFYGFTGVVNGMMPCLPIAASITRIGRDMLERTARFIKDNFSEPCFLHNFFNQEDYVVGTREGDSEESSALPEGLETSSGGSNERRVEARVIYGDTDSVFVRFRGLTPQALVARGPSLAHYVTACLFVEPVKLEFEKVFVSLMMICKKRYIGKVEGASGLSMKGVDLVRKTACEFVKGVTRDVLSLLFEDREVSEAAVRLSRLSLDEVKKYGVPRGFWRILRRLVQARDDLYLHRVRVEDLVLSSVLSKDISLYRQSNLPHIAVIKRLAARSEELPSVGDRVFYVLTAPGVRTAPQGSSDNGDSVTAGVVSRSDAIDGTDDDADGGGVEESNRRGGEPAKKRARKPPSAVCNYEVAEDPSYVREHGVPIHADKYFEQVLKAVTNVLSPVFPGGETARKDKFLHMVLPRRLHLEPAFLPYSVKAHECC

Row | Structure (SMILES) | inhibition at 25 µM
1 | COc1ccc(CNc2nnc(NC(=O)c3ccc(I)cc3)s2)cc1OC [compound 134, N-{5-[(3,4-dimethoxybenzyl)amino]-1,3,4-thiadiazol-2-yl}-4-iodobenzamide] | 56.9%
2 | CCOc1ccc2ccccc2c1C(=O)Nc1nnc(NCc2cccc3ccccc23)s1 [compound 136, 2-ethoxy-N-{5-[(1-naphthylmethyl)amino]-1,3,4-thiadiazol-2-yl}-1-naphthamide] | 56.5%
3 | O=C(Nc1nnc(NCCCNC2CCCCC2)s1)c1cccc([N+](=O)[O-])c1 [compound 137, N-(5-{[3-(cyclohexylamino)propyl]amino}-1,3,4-thiadiazol-2-yl)-3-nitrobenzamide] | 56.4%
4 | N#Cc1ccc(C(=O)Nc2nnc(NCc3ccc(Cl)c(Cl)c3)s2)cc1 [compound 140, 4-cyano-N-{5-[(3,4-dichlorobenzyl)amino]-1,3,4-thiadiazol-2-yl}benzamide] | 56.2%
5 | NS(=O)(=O)c1ccc(CCNc2nnc(NC(=O)c3ccc(Cl)c(Cl)c3)s2)cc1 [compound 142, N-(5-{[4-(aminosulfonyl)phenethyl]amino}-1,3,4-thiadiazol-2-yl)-3,4-dichlorobenzamide] | 55.4%
6 | O=C(Nc1nnc(NCc2ccc(F)cc2)s1)c1c(Cl)cccc1Cl [compound 144, 2,6-dichloro-N-{5-[(4-fluorobenzyl)amino]-1,3,4-thiadiazol-2-yl}benzamide] | 55.2%
7 | CCCCCCCCCCCNc1nnc(NC(=O)c2c(OCC)ccc3ccccc23)s1 [compound 145, 2-ethoxy-N-[5-(undecylamino)-1,3,4-thiadiazol-2-yl]-1-naphthamide] | 54.9%
8 | CCCCCCCCCCCNc1nnc(NC(=O)c2ccc(I)cc2)s1 [compound 147, 4-iodo-N-[5-(undecylamino)-1,3,4-thiadiazol-2-yl]benzamide] | 54.7%
9 | CCCCCCCC/C=C/CCCCCCCC(=O)Nc1nnc(NCCc2c[nH]c3ccccc23)s1 [compound 149, (E)-N-(5-{[2-(1H-indol-3-yl)ethyl]amino}-1,3,4-thiadiazol-2-yl)-9-octadecenamide] | 54.5%
10 | O=C(Nc1nnc(NC2CCN(Cc3ccccc3)CC2)s1)c1c(Cl)cccc1Cl [compound 151, N-{5-[(1-benzyl-4-piperidinyl)amino]-1,3,4-thiadiazol-2-yl}-2,6-dichlorobenzamide] | 54%
11 | NS(=O)(=O)c1ccc(CCNc2nnc(NC(=O)c3ccc(Br)cc3)s2)cc1 [compound 152, N-(5-{[4-(aminosulfonyl)phenethyl]amino}-1,3,4-thiadiazol-2-yl)-4-bromobenzamide] | 53.9%
12 | CCOc1ccc2ccccc2c1C(=O)Nc1nnc(NC2CCCCCC2)s1 [compound 157, N-[5-(cycloheptylamino)-1,3,4-thiadiazol-2-yl]-2-ethoxy-1-naphthamide] | 53%
13 | O=C(Nc1nnc(NCCCNC2CCCCC2)s1)c1ccc(Br)cc1 [compound 159, 4-bromo-N-(5-{[3-(cyclohexylamino)propyl]amino}-1,3,4-thiadiazol-2-yl)benzamide] | 52.8%
14 | O=C(Nc1nnc(NCCCNC2CCCCC2)s1)c1ccc(F)cc1F [compound 160, N-(5-{[3-(cyclohexylamino)propyl]amino}-1,3,4-thiadiazol-2-yl)-2,4-difluorobenzamide] | 52.6%
15 | Cc1ccc(C(=O)Nc2nnc(NCCCNC3CCCCC3)s2)cc1 [compound 162, N-(5-{[3-(cyclohexylamino)propyl]amino}-1,3,4-thiadiazol-2-yl)-4-methylbenzamide] | 51.8%
16 | O=C(CCCCCl)Nc1nnc(NCc2ccc3c(c2)OCO3)s1 [compound 165, N-{5-[(1,3-benzodioxol-5-ylmethyl)amino]-1,3,4-thiadiazol-2-yl}-5-chloropentanamide] | 51.3%
17 | CCCCCCCC/C=C/CCCCCCCC(=O)Nc1nnc(NC[C@@H]2CCC3CC2C3(C)C)s1 (stereo partly drawn) [compound 166, (E)-N-[5-({[(2R)-6,6-dimethylbicyclo[3.1.1]hept-2-yl]methyl}amino)-1,3,4-thiadiazol-2-yl]-9-octadecenamide] | 51.1%
18 | CCCCCCCCCCCNc1nnc(NC(=O)c2ccc(C)cc2)s1 [compound 167, 4-methyl-N-[5-(undecylamino)-1,3,4-thiadiazol-2-yl]benzamide] | 50.8%
19 | CC(C)c1cc(C(C)C)c(C(=O)Nc2nnc(NCCN3CCCC3)s2)c(C(C)C)c1 [compound 169, 2,4,6-triisopropyl-N-(5-{[2-(1-pyrrolidinyl)ethyl]amino}-1,3,4-thiadiazol-2-yl)benzamide] | 50.7%
20 | CCCCCCCC/C=C/CCCCCCCC(=O)Nc1nnc(NCc2ccccn2)s1 [compound 171, (E)-N-{5-[(2-pyridinylmethyl)amino]-1,3,4-thiadiazol-2-yl}-9-octadecenamide] | 49.9%
21 | O=C(Nc1nnc(NCCCNC2CCCCC2)s1)c1ccc(Cl)c(Cl)c1 [compound 172, 3,4-dichloro-N-(5-{[3-(cyclohexylamino)propyl]amino}-1,3,4-thiadiazol-2-yl)benzamide] | 49.7%
22 | CC(C)c1cc(C(C)C)c(C(=O)Nc2nnc(NCc3cccc4ccccc34)s2)c(C(C)C)c1 [compound 173, 2,4,6-triisopropyl-N-{5-[(1-naphthylmethyl)amino]-1,3,4-thiadiazol-2-yl}benzamide] | 49.5%

Continued, values first:

Row | inhibition at 25 µM | Structure (SMILES)
23 | 57% | O=C(/C=C/c1ccccc1)Nc1nnc(NCCCn2ccnc2)s1 [compound 133, (E)-N-(5-{[3-(1H-imidazol-1-yl)propyl]amino}-1,3,4-thiadiazol-2-yl)-3-phenyl-2-propenamide]
24 | 56.6% | O=C(Nc1nnc(NCCCN2CCCC2=O)s1)c1cccc([N+](=O)[O-])c1 [compound 135, 3-nitro-N-(5-{[3-(2-oxo-1-pyrrolidinyl)propyl]amino}-1,3,4-thiadiazol-2-yl)benzamide]
25 | 56.2% | O=C(Nc1nnc(NCCCCc2ccccc2)s1)c1ccc(C(F)(F)F)cc1 [compound 138, N-{5-[(4-phenylbutyl)amino]-1,3,4-thiadiazol-2-yl}-4-(trifluoromethyl)benzamide]
26 | 56.2% | O=C(/C=C/c1ccccc1)Nc1nnc(NCc2ccccn2)s1 [compound 139, (E)-3-phenyl-N-{5-[(2-pyridinylmethyl)amino]-1,3,4-thiadiazol-2-yl}-2-propenamide]
27 | 55.7% | CCOc1ccc2ccccc2c1C(=O)Nc1nnc(NCCc2c[nH]c3ccccc23)s1 [compound 141, 2-ethoxy-N-(5-{[2-(1H-indol-3-yl)ethyl]amino}-1,3,4-thiadiazol-2-yl)-1-naphthamide]
28 | 55.4% | N#Cc1ccc(C(=O)Nc2nnc(NCCCCc3ccccc3)s2)cc1 [compound 143, 4-cyano-N-{5-[(4-phenylbutyl)amino]-1,3,4-thiadiazol-2-yl}benzamide]
29 | 54.8% | N#CCCNc1nnc(NC(=O)c2c(Cl)cccc2Cl)s1 [compound 146, 2,6-dichloro-N-{5-[(2-cyanoethyl)amino]-1,3,4-thiadiazol-2-yl}benzamide]
30 | 54.6% | CCSCCNc1nnc(NC(=O)c2ccc(I)cc2)s1 [compound 148, N-(5-{[2-(ethylsulfanyl)ethyl]amino}-1,3,4-thiadiazol-2-yl)-4-iodobenzamide]
31 | 54.5% | O=C(Nc1nnc(NCCCN2CCCC2=O)s1)c1cc2ccccc2s1 [compound 150, N-(5-{[3-(2-oxo-1-pyrrolidinyl)propyl]amino}-1,3,4-thiadiazol-2-yl)-1-benzothiophene-2-carboxamide]
32 | 53.7% | O=C(/C=C/c1ccccc1)Nc1nnc(NCCc2c[nH]c3ccccc23)s1 [compound 153, (E)-N-(5-{[2-(1H-indol-3-yl)ethyl]amino}-1,3,4-thiadiazol-2-yl)-3-phenyl-2-propenamide]
33 | 53.6% | O=C(/C=C/c1ccccc1Cl)Nc1nnc(NCC(c2ccccc2)c2ccccc2)s1 [compound 154, (E)-3-(2-chlorophenyl)-N-{5-[(2,2-diphenylethyl)amino]-1,3,4-thiadiazol-2-yl}-2-propenamide]
34 | 53.3% | N#Cc1ccc(C(=O)Nc2nnc(NCc3cccc4ccccc34)s2)cc1 [compound 155, 4-cyano-N-{5-[(1-naphthylmethyl)amino]-1,3,4-thiadiazol-2-yl}benzamide]
35 | 53.2% | O=C(Nc1nnc(NCc2cccnc2)s1)c1c(Cl)cccc1Cl [compound 156, 2,6-dichloro-N-{5-[(3-pyridinylmethyl)amino]-1,3,4-thiadiazol-2-yl}benzamide]
36 | 52.9% | N#Cc1ccc(C(=O)Nc2nnc(NCCCN3CCCC3=O)s2)cc1 [compound 158, 4-cyano-N-(5-{[3-(2-oxo-1-pyrrolidinyl)propyl]amino}-1,3,4-thiadiazol-2-yl)benzamide]
37 | 51.9% | O=C(/C=C/c1ccccc1Cl)Nc1nnc(NCc2ccccn2)s1 [compound 161, (E)-3-(2-chlorophenyl)-N-{5-[(2-pyridinylmethyl)amino]-1,3,4-thiadiazol-2-yl}-2-propenamide]
38 | 51.5% | O=C(Nc1nnc(NCCSc2ccccc2)s1)c1ccc(Br)cc1 [compound 163, 4-bromo-N-(5-{[2-(phenylsulfanyl)ethyl]amino}-1,3,4-thiadiazol-2-yl)benzamide]
39 | 51.4% | O=C(/C=C/c1ccccc1Cl)Nc1nnc(NCc2cccs2)s1 [compound 164, (E)-3-(2-chlorophenyl)-N-{5-[(2-thienylmethyl)amino]-1,3,4-thiadiazol-2-yl}-2-propenamide]
40 | 50.8% | O=C(Nc1nnc(NCCCCc2ccccc2)s1)c1ccc(Cl)c(Cl)c1 [compound 168, 3,4-dichloro-N-{5-[(4-phenylbutyl)amino]-1,3,4-thiadiazol-2-yl}benzamide]
41 | 50.5% | O=C(Nc1nnc(NCCCCc2ccccc2)s1)c1ccc(Br)cc1 [compound 170, 4-bromo-N-{5-[(4-phenylbutyl)amino]-1,3,4-thiadiazol-2-yl}benzamide]
